# Laboratory results as given in BindingDB's records for doi:10.1016/S0960-894X(97)00247-3 (1997).
# Biological target: Phospholipase A2, membrane associated (group IIA)
# Assay: Compound was tested for the Inhibition of human Secretory phospholipase A 2 acyl hydrolysis using a membrane assay; Inactive
row,IC50,Compound
1,> 200 µM,CCCCCCCCCCCCCCCCCCOCC(CCCCO)NC(C)=O (configuration not stated) [N-(5-Hydroxy-1-octadecyloxymethyl-pentyl)-acetamide]

# Biological target: not listed separately
# Assay: Compound was tested for the Inhibition of human Secretory phospholipase A 2 acyl hydrolysis using a membrane assay; inactive
row,IC50,Compound
1,1 µM,CCCCCCCCOC[C@H](CO[P@](=O)(O)OCCN)O[P@@](=O)(O)CCCCCCC
2,8 µM,C=CCCC(COCCCCCCCCCCCCCCCCCC)NC(C)=O (configuration not stated) [N-(1-Octadecyloxymethyl-pent-4-enyl)-acetamide]
3,60 µM,CCCCCCCCCCCCCCCCCCOCC(CCCC)NC(C)=O (configuration not stated) [N-(1-Octadecyloxymethyl-pentyl)-acetamide]
4,8.9 µM,"CCCCCCCCCCCCCCCCCCOCC(CCC(O)CO)NC(C)=O (configuration not stated) [N-(4,5-Dihydroxy-1-octadecyloxymethyl-pentyl)-acetamide]"
5,100 µM,"CCCCCCCCCCCCCCCCCCOCC(COCC(F)(F)F)NC(C)=O (configuration not stated) [N-[1-Octadecyloxymethyl-2-(2,2,2-trifluoro-ethoxy)-ethyl]-acetamide]"
6,0.57 µM,CCCCCCCCCCCCCCCCCCOCC(CCc1nnn[nH]1)NC(C)=O (configuration not stated) [N-[1-Octadecyloxymethyl-3-(1H-tetrazol-5-yl)-propyl]-acetamide]
7,50 µM,CCCCCCCCCCCCCCCCCCOCC(CCS(=O)(=O)c1ccc(C)cc1)NC(C)=O (configuration not stated) [N-[1-Octadecyloxymethyl-3-(toluene-4-sulfonyl)-propyl]-acetamide]
8,60 µM,CCCCCCCCCCCCCCCCCCOCC(CC[S+](C)[O-])NC(C)=O (configuration not stated) [N-[1-[(Octadecyloxy)methyl]-3-(methylsulfinyl)propyl]acetamide]
9,1 µM,CCCCCCCCCCCCC(=O)NC(COCCC)COP(=O)(O)OCCO (configuration not stated) [Phosphoric acid 2-hydroxy-ethyl ester 3-propoxy-2-tridecanoylamino-propyl ester]
10,6.6 µM,CCCCCCCCCCCCC(=O)NC(CCCC)CCc1nnn[nH]1 (configuration not stated) [Tridecanoic acid {1-[2-(1H-tetrazol-5-yl)-ethyl]-pentyl}-amide]

# Biological target: not listed separately
# Assay: as above
# Remark: another data set of the same source
row,IC50,Compound
1,> 200 µM,CCCCCCCCCCCCCCCCCCOCC(CCC1CO1)NC(C)=O (configuration not stated) [N-(1-Octadecyloxymethyl-3-oxiranyl-propyl)-acetamide]
2,> 200 µM,CCCCCCCCCCCCCCCCCCOCC(CCSc1ccc(C)cc1)NC(C)=O (configuration not stated) [N-(1-Octadecyloxymethyl-3-p-tolylsulfanyl-propyl)-acetamide]
3,> 200 µM,CCCCCCCCCCCCCCCCCCOCC(CCC(C)=O)NC(C)=O (configuration not stated) [N-(1-Octadecyloxymethyl-4-oxo-pentyl)-acetamide]
4,> 200 µM,CCCCCCCCCCCCCCCCCCOCC(CCCO)NC(C)=O (configuration not stated) [N-(4-Hydroxy-1-octadecyloxymethyl-butyl)-acetamide]
5,> 200 µM,CCCCCCCCCCCCCCCCCCOCC(CNS(=O)(=O)c1ccc(C)cc1)NC(C)=O (configuration not stated) [N-[1-Octadecyloxymethyl-2-(toluene-4-sulfonylamino)-ethyl]-acetamide]
6,> 200 µM,CCCCCCCCCCCCCCCCCCOCC(CC[S+]([O-])c1ccc(C)cc1)NC(C)=O (configuration not stated) [N-{1-(Octadecyloxymethyl)-3-[(4-methylphenyl)sulfinyl]propyl}acetamide]
